# Results reported in BigSolDB 2.1.
smiles,measurement,setting,value
CC#CCn1c(N2CCC[C@@H](N)C2)nc2c1c(=O)n(Cc1nc(C)c3ccccc3n1)c(=O)n2C,solubility (mole fraction),"in acetonitrile, 273.15 K",0.000425
same,solubility (mole fraction),"in acetonitrile, 278.15 K",0.000546
same,solubility (mole fraction),"in acetonitrile, 283.15 K",0.000675
same,solubility (mole fraction),"in acetonitrile, 288.15 K",0.000821
same,solubility (mole fraction),"in acetonitrile, 293.15 K",0.000974
same,solubility (mole fraction),"in acetonitrile, 298.15 K",0.00114
same,solubility (mole fraction),"in acetonitrile, 303.15 K",0.00132
same,solubility (mole fraction),"in acetonitrile, 308.15 K",0.00151
same,solubility (mole fraction),"in acetonitrile, 313.15 K",0.00172
same,solubility (mole fraction),"in ethanol, 273.15 K",0.000511
same,solubility (mole fraction),"in ethanol, 278.15 K",0.000637
same,solubility (mole fraction),"in ethanol, 283.15 K",0.000782
same,solubility (mole fraction),"in ethanol, 288.15 K",0.000947
same,solubility (mole fraction),"in ethanol, 293.15 K",0.00113
same,solubility (mole fraction),"in ethanol, 298.15 K",0.00137
same,solubility (mole fraction),"in ethanol, 303.15 K",0.00163
same,solubility (mole fraction),"in ethanol, 308.15 K",0.00194
same,solubility (mole fraction),"in ethanol, 313.15 K",0.00231
same,solubility (mole fraction),"in isopropanol, 273.15 K",0.000227
same,solubility (mole fraction),"in isopropanol, 278.15 K",0.000282
same,solubility (mole fraction),"in isopropanol, 283.15 K",0.000343
same,solubility (mole fraction),"in isopropanol, 288.15 K",0.000421
same,solubility (mole fraction),"in isopropanol, 293.15 K",0.000496
same,solubility (mole fraction),"in isopropanol, 298.15 K",0.000578
same,solubility (mole fraction),"in isopropanol, 303.15 K",0.000668
same,solubility (mole fraction),"in isopropanol, 308.15 K",0.000765
same,solubility (mole fraction),"in isopropanol, 313.15 K",0.000874
same,solubility (mole fraction),"in methanol, 273.15 K",0.00061
same,solubility (mole fraction),"in methanol, 278.15 K",0.000778
same,solubility (mole fraction),"in methanol, 283.15 K",0.00097
same,solubility (mole fraction),"in methanol, 288.15 K",0.00121
same,solubility (mole fraction),"in methanol, 293.15 K",0.00148
same,solubility (mole fraction),"in methanol, 298.15 K",0.00179
same,solubility (mole fraction),"in methanol, 303.15 K",0.00213
same,solubility (mole fraction),"in methanol, 308.15 K",0.00254
same,solubility (mole fraction),"in methanol, 313.15 K",0.00302
same,solubility (mole fraction),"in n-propanol, 273.15 K",0.000342
same,solubility (mole fraction),"in n-propanol, 278.15 K",0.000403
same,solubility (mole fraction),"in n-propanol, 283.15 K",0.000478
same,solubility (mole fraction),"in n-propanol, 288.15 K",0.000573
same,solubility (mole fraction),"in n-propanol, 293.15 K",0.00067
same,solubility (mole fraction),"in n-propanol, 298.15 K",0.000794
same,solubility (mole fraction),"in n-propanol, 303.15 K",0.00093
same,solubility (mole fraction),"in n-propanol, 308.15 K",0.00108
same,solubility (mole fraction),"in n-propanol, 313.15 K",0.00125
